[iaB] = inverted abasic ribose cap; [2sU] = 2-thio-2'-deoxyuridine; d = 2'-deoxy (DNA); m = 2'-O-methyl; r = 2'-OH (RNA)
Experiments:
[1] = tested on: Ov8GFP-TWIST1 cells; assay: SRB assay, cisplatin plus PI3K inhibitor LY294002; type: cell-based, human
Procedure: Sulphorhodamine B assays. Cells were plated at 5,000 per well in normal medium in 96 well plates (100 μL/well), n=6 per drug concentration, per condition. Cells were allowed to adhere overnight, and then cisplatin was added. Cisplatin was prepared at 2× concentration in 100 μL normal medium, and then added to cells to yield 200 μL at 1×. Following 3 day incubation with cisplatin, medium was removed and cells were fixed with 10% trichloroacetic acid (TCA, 100 μL/well) at 4° C. for 1 hr. TCA was then removed and wells were rinsed with 200 μl water and allowed to air dry 10 min. […] Plates were air dried and excess SRB adhered to the walls of the wells was removed with a cotton swab. Finally, SRB was solubilized in 10 mM Tris base (200 μL/well) and absorbance was measured at 570 nm on a SpectraMax Plus plate reader (Molecular Devices, Sunnyvale, CA). Readings for each condition were normalized to untreated wells from the same condition. Cisplatin concentrations were adjusted to fit experimental demands. […] For Akt studies, the PI3K inhibitor LY294002 was used to inhibit Akt activation (FIGS. 25A-25D), and was obtained from Cell Signaling Technology (Danvers, MA).

[2] = tested on: TWIST1; assay: TWIST1 knockdown after Lipofectamine 2000 transfection of siRNA in MDA-MB-435S cells (western blot); type: cell-based, human; details: unmodified vs passenger-strand modified si419
Procedure: Transient transfection of MDA-MB-435S GFP+ffluc was carried out using LIPOFECTAMINE® 2000 (Thermo Fisher Scientific, Waltham, MA) according to the manufacturer's instructions. LIPOFECTAMINE® 2000 transfection was used to confirm the functionality of the siRNA (si419 and si494) prior to testing their efficacy with MSNs. Transfection of siRNA with MSNs was carried out by incubating the MSNs with the siRNA overnight at 4° C. while rotating the tube constantly. The mixture consisted of 7 parts MSN (diluted to 500 ng/ul in sterile PBS) to 1 part siRNA (diluted to 10 uM). The final concentration for of MSNs and siRNA applied to cells was 17.5 ng/ul and 50 nM, respectively.
Western Blot. Following siRNA treatment described above, cells were lifted from tissue culture wells with 0.25% trypsin, pelleted, and lysed in RIPA buffer. Protein concentration was determined using a BCA Assay (Thermo Fisher Scientific). A total of 30 μg of protein per lane was run on 4% stacking and 12% resolving polyacrylamide gels. Following gel electrophoresis, protein was transferred to Immobilon-P PVDF membrane (Millipore, Billerica, MA) using a Trans-Blot SD Semi-Dry Transfer Cell (Bio-Rad, Hercules, CA). Membranes were then blocked with 5% dry milk dissolved in 1×PBS with 0.1% Tween-20. Antibodies were diluted in blocking buffer (1:250 for anti-TWIST1 and 1:2,500 for anti-Actin). […]

[3] = tested on: TWIST; assay: TWIST knockdown after MSN delivery of siRNA in ovarian cancer cell lines; type: cell-based
Procedure: MSN design and delivery. Mesoporous silica nanoparticles (MSNs) were synthesized utilizing the sol-gel method as described previously. First, 250 mg 95% cetyltrimethylammonium bromide (CTAB) was dissolved in 120 ml of water with 875 μl 2M sodium hydroxide solution, at 80° C. Next, 1.2 ml of 98% tetraethylorthosilicate was added. After 15 min, 300 μl of 42% 3-(trihydroxysilyl) propyl methylphosphonate was added, and the mixture was stirred 2 hr. Particles were collected using centrifugation and washed with methanol. Acidic methanol was then used to remove any remaining CTAB surfactants. Zeta potential at 50 μg/mL was 43.75 mV [14]. All chemicals were obtained from Aldrich (St. Louis, MO). Particles were ˜120 nm in diameter, with 2.5 nm pores. Low molecular weight (1.8 kD branched polymer) polyethyleneimine (PEI) was electrostatically attached to the particle surface to provide a positive change to attract negatively charged siRNA [21]. To complex siRNA for in vitro experiments, 10 μl siRNA at 10 μM was mixed with 70 ul MSNs at 500 μg/ml and 20 μl water, and the mixture was incubated overnight at 4° C. on a roller. The following day, 100 μl of the MSN-siRNA complexes was added to each well of a 6-well plate containing 1900 μl normal medium.
(§1) Western Blotting. Following siRNA treatment, cells were pelleted and lysed in RIPA buffer. Protein concentration was determined by BCA assay (Thermo Fisher). Following SDS-PAGE, protein was transferred to Amersham PVDF membrane (Genesee Scientific) using a BioRad Trans-Blot SD semi-dry transfer unit. Blots were then blocked in milk for one hour at room temperature or overnight at 4° C. Incubation with primary antibody took place for one hour at room temperature or overnight at 4° C. Antibodies were diluted in 5% milk, with 0.1-0.2% Tween-20. Antibodies used were TWIST 2c1a (Santa Cruz Biotechnology, Dallas, TX) at 1:250-1:500 dilution, β-Actin, A1978 (Sigma Aldrich, St. Louis, MO) at 1:2500-1:5000 dilution; and Horseradish Peroxidase (HRP) conjugated anti-mouse secondary antibodies. […]

[4] = tested on: TWIST; assay: TWIST knockdown after YTZ3-15 delivery of siRNA in ovarian cancer cell lines; type: cell-based
Procedure: PAMAM dendrimer design and delivery. The polyamidoamine (PAMAM) dendrimer used in this study is the […] third generation dendrimer, illustrated in FIG. 16A and previously described. To complex the dendrimer with siRNA, YTZ3-15 at 240 μM was mixed with […] in OptiMEM Low Serum Medium (Thermo Fisher). Upon complexing with siRNA, dendrimers form micelle structures with siRNA at the surface and the hydrophobic tails sequestered in the core (FIG. 16B). 14.6 μl YTZ3-15 and 10 μl siRNA were used per well of a 6-well plate. Final concentrations of YTZ3-15 and siRNA once added to cells were 1.75 μM and 50 nm, respectively. Where indicated, 3.5 μM YTZ3-15 and 100 nm siRNA were used for Ovcar8.
Western Blotting. Following siRNA treatment, cells were pelleted and lysed in RIPA buffer. Protein concentration was determined by BCA assay (Thermo Fisher). Following SDS-PAGE, protein was transferred to Amersham PVDF membrane (Genesee Scientific) using a BioRad Trans-Blot SD semi-dry transfer unit. Blots were then blocked in milk for one hour at room temperature or overnight at 4° C. Incubation with primary antibody took place for one hour at room temperature or overnight at 4° C. Antibodies were diluted in 5% milk, with 0.1-0.2% Tween-20. Antibodies used were TWIST 2c1a (Santa Cruz Biotechnology, Dallas, TX) at 1:250-1:500 dilution, β-Actin, A1978 (Sigma Aldrich, St. Louis, MO) at 1:2500-1:5000 dilution; and Horseradish Peroxidase (HRP) conjugated anti-mouse secondary antibodies. For film-based westerns, Blue Devil film (Genesee Scientific) and ECL Plus chemiluminescent substrate (Thermo Fisher) were used to detect protein. For digital westerns, the Syngene Pxi4 digital blot imager and Michigan Diagnostics FemtoGlow chemilumescent substrate were used.

[5] = tested on: Vimentin mRNA; assay: qPCR after YTZ3-15 delivery of siTwist in SUM 1315: Vimentin; type: cell-based, human; details: delivered via YTZ3-15; after one day
Procedure: (§2) Cell Culture, Transfection, and Stable Cell Line Production. SUM 1315 breast cancer cells were obtained from ATCC (Manassas, VA). Cells were maintained at 37° C., 5% CO2, and 90% humidity in a tissue culture incubator. Media for SUM 1315 cells consisted of a 50-50 mixture of DMEM and F12 media, supplemented with 5 μg/ml insulin, 10 ng/ml EGF, 5% fetal bovine serum, and 1% penicillin/streptomycin. Cells were passaged using 0.25% trypsin (Genesee Scientific, San Diego, CA) every 2-3 days as they reached confluency. […]
(§3) Quantitative PCR. […] RNA quantity and quality was measured and analyzed (with 260/280 nm and 260/230 nm spectra measurements) using a NanoDrop ND-1000 (Thermo Fisher Scientific, Waltham, MA). […] Quantitative RT-PCR was performed in quadruplicate using Maxima SYBR Green Master Mix (Thermo Fisher Scientific, Waltham, MA) in 25 μl reactions. […] Data were analyzed using Bio-Rad iQ5 software using the 2^−ΔΔ^Ct method and normalized to Actin. […]

[6] = tested on: N-Cadherin mRNA; assay: qPCR after YTZ3-15 delivery of siTwist in SUM 1315: N-Cadherin; type: cell-based, human; details: delivered via YTZ3-15; after seven days
Procedure: as §2, §3

[7] = tested on: TWIST1; assay: TWIST1 knockdown after Lipofectamine 2000 transfection in SUM 1315; type: cell-based, human
Procedure: as §2, §3
Western Blot. […] Cells were pelleted, lysed in RIPA buffer, and protein concentration was determined using the BCA Assay (Thermo Fisher Scientific, Waltham, MA). […]

[8] = tested on: TWIST; assay: TWIST knockdown after Lipofectamine 2000 transfection in A2780R (western blot); type: cell-based; details: over three days post transfection
Procedure: Cell Culture. A2780R and all derivatives of Ovcar8 were grown in RPMI 1640 (Genesee Scientific, San Diego, CA) in a tissue culture incubator at 37° C., 5% CO2, and 90% humidity. Growth medium was supplemented with 10% fetal bovine serum and 1% penicillin/streptomycin. Cells were passaged every 2-4 days using 0.25% trypsin (Genesee Scientific). Where indicated, cells were transfected with Lipofectamine 2000 (Thermo Fisher, Waltham, MA) according to the manufacturer's instructions. A2780R cells are a cisplatin resistant derivative of A2780.
as §1

`O=c1cc(N2CCOCC2)oc2c(-c3ccccc3)cccc12` [LY294002] was tested, and the “greater cell death vs cisplatin alone” value ([1]; combination with 5 μM cisplatin) was 15% and the “greater cell death vs cisplatin alone” value ([1]; combination with 10 μM cisplatin) was 25%.

With “si419H: chemically modified si419 duplex: 2′-O-methyl and inverted abasic ribose on passenger strand (SEQ ID NO:11; guide SEQ ID NO:12) (sense GGACAAGCUGAGCAAGAUU; antisense AAUCUUGCUCAGCUUGUCCUU; siRNA; sense: sugars from the 5' end r17 m2, [iaB] at 5' end, 3' end, backbone not given here; antisense: sugars from the 5' end r16 d1 r4, [2sU] at 17, backbone not given here)” the “knockdown (efficiency, FIG. 6)” value [2] was “approximately 80%” and the TWIST knockdown ([3]; Ovcar8-IP, MSNs) was “robust knockdown of TWIST even after 24 hours”.

For “si494: anti-TWIST siRNA; passenger 5′-GCGACGAGCUGGACUCCAA-3′ (SEQ ID No: 3), guide 5′-UUGGAGUCCAGCUCGUCGCUU-3′ (SEQ ID No: 4) (listed as RNA, chemistry not fully specified)”, the TWIST knockdown ([4]; A2780R) was “successfully knocked down TWIST”, the TWIST knockdown ([4]; Ovcar8, double the usual dose (100 nM siRNA)) was “minimal” and the “Vimentin mRNA level” value [5] was “nearly undetectable”. The TWIST knockdown ([3]; A2780R and Ovcar8, loaded onto MSNs) was “robust TWIST knockdown lasting one week post transfection”, the “N-Cadherin mRNA decrease” value [6] was “approximately 90%” and the “TWIST1 knockdown (protein and mRNA)” value [7] was “slightly more knockdown than siTwistA”. The TWIST expression [8] was “completely inhibit TWIST expression”.

From US11926826B2, “Twist signaling inhibitor compositions and methods of using the same” (City of Hope, priority 2016, dated 2024)
